The text below walks through data of patent US11498930B2 (BLUERAY THERAPEUTICS (SHANGHAI) CO., LTD., priority 2018, dated 2022).

Experiment [1] concerns the target SHP2^E76A protein (Homo sapiens (Human), UniProt Q06124, E76A). As to the kind of experiment: SHP2 enzyme activity inhibition experiment. It counts as biochemical. In outline:
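Compounds tested at 10 concentrations in 3-fold serial dilution. IC50 from a four-parameter Hill-slope nonlinear fit of enzyme activity versus concentration.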

The test system of experiment [2] is phosphorylation level of intracellular protein kinase (ERK) in MOLM13 cells. As to the kind of experiment: Phosphorylated protein kinase (p-ERK) cell experiment (AlphaLISA). It counts as cell-based. The settings on record: Homo sapiens, MOLM-13, MOLM13 cells. The procedure: The inhibitory activities of the compounds on the phosphorylation level of intracellular protein kinase (ERK) were determined by AlphaLISA method.
Firstly, the cells were treated with the compounds. The compounds to be tested were subjected to 3-fold dilution with 100% DMSO, and a total of 9 different concentration gradients were set. MOLM13 cells were then seeded into 96-well plates at a density of 30,000 cells per well in a volume of 100 µL per well. […] of DMSO or the test compounds with different concentrations was then transferred into each well, setting two duplicates for each concentration, and the final concentration of DMSO was controlled at 0.5%.
Secondly, the cells were lysed. After 2 hours of cell treatment, the medium was removed, and the cells were washed 3 times with phosphate buffered saline. 50 µL of freshly prepared lysis buffer was added to each well, and the plates were shaken and kept at room temperature for 10 minutes.
Thirdly, the phosphorylated extracellular signal-regulated kinase (p-ERK) was detected by AlphaLISA@ SureFire® Ultra™ p-ERK 1/2 (Thr202/Tyr204) kit (Perkin Elmer, ALSU-PERK-A10K). 10 µL of the above lysate was transferred to a 384-well plate (Perkin Elmer, 6005350), and the phosphorylation level of the extracellular signal-regulated kinase of the sample was detected according to the product instructions. The signal was read using AlphaScreen detector on Spectra max i3 (Molecular Devices). The percentage of inhibition (%) was calculated by the following formula: Inhibition percentage(%)=(1−p-ERK signal of compound-treated cells/p-ERK signal of DMSO-treated cells)*100

Experiment [3] deals with MOLM-13 cells. Description: MOLM-13 cell proliferation experiment. It counts as cell-based. The settings on record: Homo sapiens. As for the experimental part: After 3 days, 5 µL of CellTiter-Glo reagent (Promega, ZG7572) was added to each well, and the plates were kept at room temperature in the dark for 10 minutes. The […] was detected by Spectra max i3 (Molecular Devices). The relative growth rate of the treated cells was compared with that of DMSO control.

[4] abbreviates: SHP2 enzyme activity, Tables 1.1 and 1.2, read-out: IC50.
Setting [5] is: Table 4, read-out: SHP2 enzyme activity IC50.
The mark [6] stands for this setting: p-ERK, 2 hours of cell treatment, Tables 2.1 and 2.2, read-out: IC50.
[7] abbreviates: MOLM-13, read-out: MOLM-13 cell proliferation IC50.
Where [8] appears, read: MOLM-13, 72 h, MOLM-13 cell proliferation, 3 days, Tables 3.1 and 3.2, read-out: IC50.

Where two headings read alike, the source gives them in different places.

Sequence of SHP2^E76A protein (Q06124 whole entry E76A): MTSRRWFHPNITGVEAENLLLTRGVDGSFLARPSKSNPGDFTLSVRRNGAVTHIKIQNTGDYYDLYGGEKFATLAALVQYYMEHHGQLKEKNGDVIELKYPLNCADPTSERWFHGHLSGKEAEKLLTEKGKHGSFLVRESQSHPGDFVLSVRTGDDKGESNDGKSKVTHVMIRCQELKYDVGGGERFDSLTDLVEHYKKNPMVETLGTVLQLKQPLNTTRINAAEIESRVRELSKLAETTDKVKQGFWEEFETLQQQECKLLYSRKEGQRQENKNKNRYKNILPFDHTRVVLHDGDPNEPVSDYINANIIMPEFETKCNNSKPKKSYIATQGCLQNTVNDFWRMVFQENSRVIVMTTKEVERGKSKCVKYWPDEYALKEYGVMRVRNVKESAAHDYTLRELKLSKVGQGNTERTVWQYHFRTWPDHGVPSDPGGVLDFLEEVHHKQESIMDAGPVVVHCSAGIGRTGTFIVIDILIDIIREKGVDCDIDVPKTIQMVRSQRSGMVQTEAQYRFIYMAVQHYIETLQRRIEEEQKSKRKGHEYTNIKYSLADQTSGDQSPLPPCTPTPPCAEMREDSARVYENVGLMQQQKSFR

For `Cc1nccc(Sc2cnc(N3CCC4(CC3)CO[C@@H](C)[C@H]4N)n3cnnc23)c1Cl` [(3S,4S)-8-(8-((3-chloro-2-methylpyridin-4-yl)thio)-[1,2,4]triazolo[4,3-c]pyrimidin-5-yl)-3-methyl-2-oxa-8-azaspiro[4.5]decan-4-amine], the IC50 was < 100 nM in experiment [1] (setting [4]); 17 nM in experiment [1] (setting [5]); 369 nM in experiment [2] (Table 4, read-out: p-ERK IC50); 100 to 1000 nM in experiment [2] (setting [6]); 277 nM in experiment [3] (setting [7]).

`Cc1nccc(Sc2cnc(N3CCC4(CC3)CO[C@@H](C)[C@H]4N)n3ccnc23)c1Cl` [(3S,4S)-8-(8-((3-chloro-2-methylpyridin-4-yl)thio)imidazo[1,2-c]pyrimidin-5-yl)-3-methyl-2-oxa-8-azaspiro[4.5]decan-4-amine]: the IC50 in experiment [1] (setting [4]) was < 100 nM; in experiment [1] (setting [5]), 15 nM; in experiment [2] (Table 4, read-out: p-ERK IC50), 19 nM; in experiment [2] (setting [6]), < 100 nM; in experiment [3] (setting [8]), < 100 nM; in experiment [3] (setting [7]), 50 nM.

Regarding `C[C@@H]1OCC2(CCN(c3ncc(Sc4cc(N)nc(Cl)c4Cl)c4nccn34)CC2)[C@@H]1N` [(3S,4S)-8-(8-((6-amino-2,3-dichloropyridin-4-yl)thio)imidazo[1,2-c]pyrimidin-5-yl)-3-methyl-2-oxa-8-azaspiro[4.5]decan-4-amine], the IC50 is < 100 nM in experiment [1] (setting [4]); 10 nM in experiment [1] (setting [5]); 47 nM in experiment [2] (Table 4, read-out: p-ERK IC50); < 100 nM in experiment [2] (setting [6]); < 100 nM in experiment [3] (setting [8]); 50 nM in experiment [3] (setting [7]).

Take `Cc1nc(N)cc(Sc2cnc(N3CCC4(CC3)CO[C@@H](C)[C@H]4N)n3ccnc23)c1Cl` [(3S,4S)-8-(8-((6-amino-3-chloro-2-methyl-pyridin-4-yl)thio)imidazo[1,2-c]pyrimidin-5-yl)-3-methyl-2-oxa-8-azaspiro[4.5]decan-4-amine]: the IC50 in experiment [1] (setting [4]) is < 100 nM; in experiment [1] (setting [5]), 16 nM; in experiment [2] (Table 4, read-out: p-ERK IC50) it was 43 nM; in experiment [2] (setting [6]) it was < 100 nM; in experiment [3] (setting [8]), < 100 nM; in experiment [3] (setting [7]), 42 nM.

`N[C@@H]1CCCCC12CCN(c1ncc(Sc3cccc(Cl)c3Cl)c3nncn13)CC2` [(R)-3-(8-((2,3-dichlorophenyl)thio)-[1,2,4]triazolo[4,3-c]pyrimidin-5-yl)-3-azaspiro[5.5]undecan-7-amine]: the IC50 was 100 to 1000 nM in experiment [1] (setting [4]), 1000 to 10000 nM in experiment [2] (setting [6]) and 1000 to 10000 nM in experiment [3] (setting [8]).

Regarding `N[C@@H]1CCC12CCN(c1ncc(Sc3cccc(Cl)c3Cl)c3nccn13)CC2` [(R)-7-(8-((2,3-dichlorophenyl)thio)imidazo[1,2-c]pyrimidin-5-yl)-7-azaspiro[3.5]nonan-1-amine], the IC50 in experiment [1] (setting [4]), in experiment [2] (setting [6]) and in experiment [3] (setting [8]) was 100 to 1000 nM each time.

As to `Cn1ccc2c(Sc3cnc(N4CCC5(CCC[C@H]5N)CC4)n4ccnc34)ccnc21` [(R)-8-(8-((1-methyl-1H-pyrrolo[2,3-b]pyridin-4-yl)thio)imidazo[1,2-c]pyrimidin-5-yl)-8-azaspiro[4.5]decan-1-amine], the results for the IC50 in experiment [1] (setting [4]), in experiment [2] (setting [6]) and in experiment [3] (setting [8]) were < 100 nM, 100 to 1000 nM and 100 to 1000 nM, respectively.

With `N[C@@H]1CC(F)(F)CC12CCN(c1ncc(Sc3cccc(Cl)c3Cl)c3nccn13)CC2` [(R)-8-(8-((2,3-dichlorophenyl)thio)imidazo[1,2-c]pyrimidin-5-yl)-3,3-difluoro-8-azaspiro[4.5]decan-1-amine], the IC50 in experiment [1] (setting [4]) is < 100 nM; in experiment [2] (setting [6]) it was 100 to 1000 nM; in experiment [3] (setting [8]), 100 to 1000 nM.

On to `N[C@@H]1CCCC12CCN(c1ncc(Sc3cccc(Cl)c3Cl)c3nccn13)CC2` [(R)-8-(8-((2,3-dichlorophenyl)thio)imidazo[1,2-c]pyrimidin-5-yl)-8-azaspiro[4.5]decan-1-amine], for which the IC50 is < 100 nM in experiment [1] (setting [4]), 100 to 1000 nM in experiment [2] (setting [6]) and 100 to 1000 nM in experiment [3] (setting [8]).

In the case of `N[C@@H]1CCCC12CCN(c1ncc(Sc3ccnc(Cl)c3Cl)c3nncn13)CC2` [(R)-8-(8-((2,3-dichloropyridin-4-yl)thio)-[1,2,4]triazolo[4,3-c]pyrimidin-5-yl)-8-azaspiro[4.5]decan-1-amine], the IC50 is < 100 nM in experiment [1] (setting [4]), 1000 to 10000 nM in experiment [2] (setting [6]) and 100 to 1000 nM in experiment [3] (setting [8]).

As for `N[C@@H]1CCCC12CCN(c1ncc(Sc3ccnc(Cl)c3Cl)c3nccn13)CC2` [(R)-8-(8-((2,3-dichloropyridin-4-yl)thio)imidazo[1,2-c]pyrimidin-5-yl)-8-azaspiro[4.5]decan-1-amine], the IC50 in experiment [1] (setting [4]) was < 100 nM; in experiment [1] (setting [5]) it was 57 nM; in experiment [2] (Table 4, read-out: p-ERK IC50), 159 nM; in experiment [2] (setting [6]) it was 100 to 1000 nM; in experiment [3] (setting [8]) it was < 100 nM; in experiment [3] (setting [7]), 42 nM.

For `N[C@@H]1CCCC12CCN(c1ncc(Sc3cccnc3C(F)(F)F)c3nncn13)CC2` [(R)-8-(8-((2-(trifluoromethyl)pyridin-3-yl)thio)-[1,2,4]triazolo[4,3-c]pyrimidin-5-yl)-8-azaspiro[4.5]decan-1-amine], the IC50 lay in the range of 100 to 1000 nM in experiment [1] (setting [4]), 1000 to 10000 nM in experiment [2] (setting [6]) and 100 to 1000 nM in experiment [3] (setting [8]).

`N[C@@H]1CCCC12CCN(c1ncc(Sc3cccnc3C(F)(F)F)c3nccn13)CC2` [(R)-8-(8-((2-(trifluoromethyl)pyridin-3-yl)thio)imidazo[1,2-c]pyrimidin-5-yl)-8-azaspiro[4.5]decan-1-amine]: the values for the IC50 in experiment [1] (setting [4]), in experiment [2] (setting [6]) and in experiment [3] (setting [8]) were < 100 nM, 100 to 1000 nM and 100 to 1000 nM, respectively.

In the case of `Nc1nccc(Sc2cnc(N3CCC4(CCC[C@H]4N)CC3)n3ncnc23)c1Cl` [(R)-8-(8-((2-amino-3-chloropyridin-4-yl)thio)-[1,2,4]triazolo[1,5-c]pyrimidin-5-yl)-8-azaspiro[4.5]decan-1-amine], the IC50 lay in the range of 100 to 1000 nM in experiment [1] (setting [4]), 1000 to 10000 nM in experiment [2] (setting [6]) and 100 to 1000 nM in experiment [3] (setting [8]).

Regarding `Nc1nccc(Sc2cnc(N3CCC4(CCC[C@H]4N)CC3)n3ccnc23)c1Cl` [(R)-8-(8-((2-amino-3-chloropyridin-4-yl)thio)imidazo[1,2-c]pyrimidin-5-yl)-8-azaspiro[4.5]decan-1-amine], the IC50 is < 100 nM in experiment [1] (setting [4]); 20 nM in experiment [1] (setting [5]); 410 nM in experiment [2] (Table 4, read-out: p-ERK IC50); 100 to 1000 nM in experiment [2] (setting [6]); 100 to 1000 nM in experiment [3] (setting [8]); 270 nM in experiment [3] (setting [7]).

Consider `Nc1cc(Sc2cnc(N3CCC4(CCC[C@H]4N)CC3)n3ccnc23)c(Cl)cn1` [(R)-8-(8-((2-amino-5-chloropyridin-4-yl)thio)imidazo[1,2-c]pyrimidin-5-yl)-8-azaspiro[4.5]decan-1-amine], for which the IC50 in experiment [1] (setting [4]) was < 100 nM; in experiment [1] (setting [5]) it was 25 nM; in experiment [2] (Table 4, read-out: p-ERK IC50) it was 32 nM; in experiment [2] (setting [6]), < 100 nM; in experiment [3] (setting [8]), < 100 nM; in experiment [3] (setting [7]) it was 43 nM.

For `N[C@@H]1CCCC12CCN(c1ncc(Sc3ccccc3Cl)c3nncn13)CC2` [(R)-8-(8-((2-chlorophenyl)thio)-[1,2,4]triazolo[4,3-c]pyrimidin-5-yl)-8-azaspiro[4.5]decan-1-amine], the IC50 in experiment [1] (setting [4]) is 100 to 1000 nM; in experiment [1] (setting [5]), 140 nM; in experiment [2] (Table 4, read-out: p-ERK IC50), 548 nM; in experiment [2] (setting [6]), 100 to 1000 nM; in experiment [3] (setting [8]) it was 100 to 1000 nM; in experiment [3] (setting [7]), 485 nM.

Consider `COc1ccccc1Sc1cnc(N2CCC3(CCC[C@H]3N)CC2)n2ccnc12` [(R)-8-(8-((2-methoxyphenyl)thio)imidazo[1,2-c]pyrimidin-5-yl)-8-azaspiro[4.5]decan-1-amine], for which the IC50 was < 100 nM in experiment [1] (setting [4]); 83 nM in experiment [1] (setting [5]); 469 nM in experiment [2] (Table 4, read-out: p-ERK IC50); 100 to 1000 nM in experiment [2] (setting [6]); 100 to 1000 nM in experiment [3] (setting [8]); 210 nM in experiment [3] (setting [7]).

`N[C@@H]1CCCC12CCN(c1ncc(Sc3ccncc3C(F)(F)F)c3nccn13)CC2` [(R)-8-(8-((3-(trifluoromethyl)pyridin-4-yl)thio)imidazo[1,2-c]pyrimidin-5-yl)-8-azaspiro[4.5]decan-1-amine]: the IC50 in experiment [1] (setting [4]) is < 100 nM; in experiment [2] (setting [6]), 100 to 1000 nM; in experiment [3] (setting [8]) it was 100 to 1000 nM.

As for `Nc1cccc(Sc2cnc(N3CCC4(CCC[C@H]4N)CC3)n3cnnc23)c1Cl` [(R)-8-(8-((3-amino-2-chlorophenyl)thio)-[1,2,4]triazolo[4,3-c]pyrimidin-5-yl)-8-azaspiro[4.5]decan-1-amine], the IC50 in experiment [1] (setting [4]) was < 100 nM; in experiment [1] (setting [5]) it was 25 nM; in experiment [2] (Table 4, read-out: p-ERK IC50), 245 nM; in experiment [2] (setting [6]), 100 to 1000 nM; in experiment [3] (setting [8]), 100 to 1000 nM; in experiment [3] (setting [7]), 389 nM.
